PubChem BioAssay (NCI)
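Five concentrations, 48 hours, 96-well plates. At the GI50, growth is halved. TGI is the concentration that stops growth completely.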

How the values were obtained:
Test in all cases: NCI tumour cell line growth inhibition, 48 h
DMS 273 small cell lung = system: DMS 273 small cell lung
HOP-18 NSCLC = system: HOP-18 NSCLC
KM20L2 colon = system: KM20L2 colon
M19-MEL melanoma = system: M19-MEL melanoma
SNB-78 CNS = system: SNB-78 CNS
DU-145 prostate = system: DU-145 prostate
MDA-MB-435 = system: MDA-MB-435
MDA-N = system: MDA-N
P388 leukemia = system: P388 leukemia
P388/ADR leukemia = system: P388/ADR leukemia
SN12K1 renal = system: SN12K1 renal

Row | Compound | TGI (DMS 273 small cell lung) | TGI (HOP-18 NSCLC) | TGI (KM20L2 colon) | TGI (M19-MEL melanoma) | TGI (SNB-78 CNS) | TGI (DU-145 prostate) | TGI (MDA-MB-435) | TGI (MDA-N) | TGI (P388 leukemia) | TGI (P388/ADR leukemia) | TGI (SN12K1 renal) | GI50 (DMS 273 small cell lung) | GI50 (HOP-18 NSCLC) | GI50 (KM20L2 colon) | GI50 (SNB-78 CNS)
1 | O=c1cnn2c(n1)sc1ccc3ccccc3c12 | > 100 µM | > 100 µM | > 100 µM | > 100 µM | > 100 µM |  |  |  |  |  |  |  |  |  | 
2 | NC(=S)N/N=C1/C(=O)N(c2ccc(Cl)cc2Cl)C(=O)C(=O)C1c1nc2ccccc2s1 (stereo not drawn) | > 100 µM | > 100 µM | > 100 µM | > 100 µM | > 100 µM |  |  |  |  |  |  |  |  |  | 
3 | Nc1nc2nc[nH]c2c(=O)[nH]1 | > 100 µM | > 100 µM | > 100 µM | > 100 µM | > 100 µM |  |  |  |  |  |  |  |  |  | 
4 | Cc1cc(Cl)cc2c1NC(=O)C2(O)C(C)C(=O)c1ccc(Cl)cc1 (stereo not drawn) | > 100 µM | > 100 µM | > 100 µM | 26.2 µM | > 100 µM |  |  |  |  |  |  |  |  |  | 
5 | COc1ccc(/C=C2\CCC(C)(CN(C)C)C2=O)cc1 (stereo not drawn) | > 100 µM | > 100 µM | > 100 µM | > 100 µM | > 100 µM |  |  |  |  |  |  |  |  |  | 
6 | Nc1c(-c2ccc(Cl)cc2Cl)[n+]([O-])c2ccccc2[n+]1[O-] | > 100 µM | > 100 µM | > 100 µM | > 100 µM | > 100 µM |  |  |  |  |  |  |  |  |  | 
7 | CC12CCC[C@@](C)(C(=O)OC3OC(CO)C(O)C(O)C3O)[C@H]1CCC13CC4CC(OC4(CO)[C@H]1O)[C@@H]23 (stereo partly drawn) | > 100 µM | > 100 µM | > 100 µM | > 100 µM | > 100 µM |  |  |  |  |  |  |  |  |  | 
8 | COC(=O)C1=C(CO)C2C=CC1C2 (stereo not drawn) | > 100 µM | > 100 µM | > 100 µM | > 100 µM | > 100 µM |  |  |  |  |  |  |  |  |  | 
9 | CS(=O)(=O)Nc1ccc(Nc2c3ccccc3nc3ccccc23)cc1 | 14.3 µM | 15 µM | 18.8 µM | 15 µM | 28.7 µM | > 23.1 µM | 33.7 µM | 37 µM |  |  |  |  |  |  | 
10 | CC1=C(C(=O)Nc2ccc(Cl)c(Cl)c2)C(c2ccco2)C(C(=O)Nc2ccc(Cl)c(Cl)c2)=C(C)N1 | 32.7 µM | 26.7 µM |  | 24.9 µM | 41.4 µM |  |  |  |  |  |  |  |  |  | 
11 | CC1=C(C(=O)NCc2ccccc2)C(c2ccccc2[N+](=O)[O-])C(C(=O)NCc2ccccc2)=C(C)N1 | 25.4 µM | 35.1 µM | 30.3 µM | 23.9 µM | 42.6 µM |  |  |  |  |  |  |  |  |  | 
12 | O=C(NO)C12C3C4C1C1C2C3C41C(=O)NO (stereo not drawn) | > 100 µM | > 100 µM | > 100 µM | > 100 µM | > 100 µM |  |  |  |  |  |  |  |  |  | 
13 | Cc1cc(O)cc2c1O[C@@]1(C)CCC3[C@@]4(C)CC[C@H](O)C(C)(C)C4CC[C@@]3(C)[C@H]1C2 (stereo partly drawn) | 11.6 µM | 27.8 µM |  | 25 µM | 22.1 µM |  |  |  |  |  |  |  |  |  | 
14 | Nc1ccn(C2CC(CO)C(O)C2O)c(=O)n1 (stereo not drawn) | > 57.7 µM | > 57.7 µM | > 57.7 µM | > 57.7 µM | > 57.7 µM |  |  |  |  |  |  |  |  |  | 
15 | NC1=N/C(=C2/CCNC(=O)c3[nH]c(Br)cc32)C(=O)N1 | > 100 µM | > 100 µM | > 100 µM | > 100 µM | > 100 µM | > 100 µM | > 55.5 µM | > 43.3 µM | 86.1 µM | > 100 µM | > 100 µM |  |  |  | 
16 | CC(C)=CC(=O)Cc1nc2cc(C)c(C)cc2[nH]c1=O | > 100 µM | > 100 µM | > 100 µM | > 100 µM | > 100 µM |  |  |  |  |  |  |  |  |  | 
17 | CC1OC(OCC2COC(O)(Oc3c(-c4ccc(O)c(O)c4)oc4cc(O)cc(O)c4c3=O)C(O)C2O)C(O)C(O)C1O (stereo not drawn) | > 100 µM | > 100 µM | > 100 µM | > 100 µM | > 100 µM |  |  |  |  |  |  |  |  |  | 
18 | CN(C)CC1(C)CC/C(=C\c2ccccc2)C1=O (stereo not drawn) | > 100 µM | > 100 µM | > 100 µM | > 100 µM | > 100 µM |  |  |  |  |  |  |  |  |  | 
19 | COc1ccc(C(c2c(O)c3ccccc3n(C)c2=O)c2c(O)c3ccccc3n(C)c2=O)cc1 | > 100 µM | > 100 µM | 45.7 µM | > 100 µM | 67.5 µM |  |  |  |  |  |  |  |  |  | 
20 | CC(C)(C)c1ccc(C(O)c2ccc(C(C)(C)C)cc2)cc1 | 25.9 µM | 31.2 µM | 32.5 µM | 26.9 µM |  |  |  |  |  |  |  |  |  |  | 
21 | CN(C)CCNC(=O)c1cccc2[nH]c(-c3ccccc3)nc12 | 39.6 µM | 46.1 µM |  | 33.5 µM | > 100 µM |  |  |  |  |  |  |  |  |  | 
22 | CCN(CC)C(=O)COc1ccc(Br)cc1Br | > 100 µM | > 100 µM | > 100 µM | > 100 µM | > 100 µM |  |  |  |  |  |  |  |  |  | 
23 | CC1C=CC(=O)C(n2cc(F)c(=O)[nH]c2=O)O1 (stereo not drawn) | 47.4 µM | 22.6 µM | 37.5 µM | 36.3 µM | 83.8 µM |  |  |  |  |  |  |  |  |  | 
24 | N.N.NCCCCN.O=C([O-])C1(C(=O)[O-])CCC1.O=C([O-])C1(C(=O)[O-])CCC1.[Pt+4].[Pt+4] | > 100 µM | > 100 µM | > 100 µM |  | > 100 µM |  |  |  |  |  |  | > 100 µM | > 100 µM | > 100 µM | > 100 µM
